Patent US10758522B2, “Small molecule analogs of the nemo binding peptide” (THE SCRIPPS RESEARCH INSTITUTE, priority 2015, dated 2020)

What was measured:
[1] = Degradation in the presence of serum; type: in vitro ADME; details: data not shown
NF-κB = test: Firefly luciferase NF-κB reporter assay in TNF-α-stimulated HEK293 cells; type: cell-based; details: for inhibition of TNF-α-induced NF-κB activation (luciferase reporter), in words: 293 NF-κB luciferase reporter cells, 10 ng/ml TNF-α, compound 12909780 at 100 μM
Method: This model was used to screen a subset of the drug-like ZINC 8.0 database set (˜900,000 compounds) (Irwin et al., 2005). We were able to identify 161 hits that matched at least 6 features out of eight of the pharmacophore model. […] Two compounds termed NBDA-1 (Zinc-13) and NBDA-2 (Zinc-5), successfully passed these filters (See FIG. 4) and were purchased for biological testing. The compounds were then tested for ability to inhibit TNF-alpha-mediated induction of NF-κB activity in a 293 cells stably modified with a NF-κB luciferase reporter.
The activation of NF-κB was then quantitated by measuring the level of luciferase activity. […] Also, protein extracts were prepared from the same cells and the level of phospho-IkB determined, a marker of IKK activity.
To test if the small molecules identified by the in silico screen inhibit NF-κB activation, a HEK293 cell line stably expressing a luciferase reporter driven by a synthetic, NF-κB-dependent promoter was utilized. To induce NF-κB activation, cells were treated with 10 ng/ml of TNF-α and harvested three hours post-treatment for analysis of luciferase activity. […] To determine if compound 12909780 inhibited NF-κB in a dose dependent manner, concentrations were tested at 0, 6.25, 25, 50 and 100 μM.
HEK293 cells stably transfected with luciferase reporter plasmid driven by NF-κB were seeded in 96-well plate in triplicate and pretreated with DMSO or varying small molecules at indicated concentration for 30 min, followed by the stimulation of 10 ng/ml of TNFα for 3 hr. Cell were washed with PBS once and harvested in passive lysis buffer. Luciferase assay (Promega) was performed using a luminometer according to the manufacturer's instructions.

[2] = system: embryonic fibroblasts from Ercc1−/− mice; test: Senescence rescue assay in ERCC1-deficient murine embryonic fibroblasts (SA-ß-gal); type: cell-based, mouse; details: oxidative stress conditions (20% O2)
Source text: In an attempt to identify new drugs able to improve healthspan, we have developed an assay for screening for drugs able to rescue primary “aged” fibroblasts from senescence. This assay uses murine embryonic fibroblasts (MEFs) from mice with accelerated aging due to a deficiency in an important DNA repair pathway, ERCC1-XPF. These MEFs undergo rapid senescence in culture, especially when grown under the high oxygen conditions that confers oxidative stress (FIGS. 18 and 19).

[3] = system: K14-Cre; Ercc1−/flox mice; test: Topical treatment of skin aging in K14-Cre; Ercc1−/flox mice; type: in vivo, mouse; details: daily
Method: To test the ability of NBDA-1 to function in vivo, the drug was tested in several models of aging. In FIG. 12, the ability of topical treatment of NBDA-1 to reduce signs of skin aging is shown. Areas on the back of normal mice or mice with enhanced skin aging (K14-Cre; Ercc1^−/flox) were shaved and then treated daily with drugs or control creams.

NF-κB target genes [4] = test: LPS-induced systemic endotoxemia / acute lung inflammation, qRT-PCR of NF-κB target genes; type: in vivo, mice; details: 10 mg/kg
Method: SR12343 and SR12460 initially were tested in an acute model of LPS-induced systemic endotoxemia to determine their NF-κB inhibitory effects in vivo. C57BL/6J mice were pretreated with vehicle control, 8K-NBD peptide or NBD mimetics at 10 mg/kg for 30 min, followed by LPS induction at 10 mg/kg. Lung and liver were harvested 2-4 hr post-treatment for qRT-PCR analysis of NF-κB target genes.
LPS (strain O111:B4) was prepared in PBS at a sub-lethal dose of 10 mg/kg. 8-10 weeks old female WT mice (20-30 g) were dosed i.p. with vehicle, NBD peptide (10 mg/kg) or small molecules (10 mg/kg) for 30 min and followed by i.p. injection of saline (1 ml/kg) or LPS (10 mg/kg). Mice were euthanized 2-4 hr post-treatment and lung was collected for further analysis.
(§1) Snap frozen tissues were preserved in RNAlater RNA stabilization solution (ThermoFisher) before processed. Total RNA was extracted from cells or tissues using TRIZOL reagent (Life Technologies) and 1500 ng of messenger RNA (mRNA) was subjected to synthesize complementary DNA (cDNA) using SuperScript VILO cDNA synthesis kit. qRT-PCR was performed in a StepOnePlus Real-Time PCR system using Platinum SYBR Green qPCR SuperMix-UDG (ThermoFisher). Target gene expression was calculated using the comparative CT method (ΔΔCT) and normalized to an internal control gene Actb (β-actin). Primers used are as follows: Ptgs2 (COX-2) forward: […]; Ptgs2 (COX-2) reverse: […]; Nfkbia (IκBα) forward: […]; Nfkbia (IκBα) reverse: […]; Il1b (IL-1β) forward: […]; Il1b (IL-1β) reverse: […]; Nos2 (iNOS) forward: […]; Nos2 (iNOS) reverse: […]; Tnf (TNF) forward: […]; Tnf (TNF) reverse: […]; Il6 (IL-6) forward: […]; Il6 (IL-6) reverse: […]. Actb (β-actin) forward: […]; Actb (β-actin) reverse: […];

NF-κB target genes [5] = test: qRT-PCR of NF-κB target genes in LPS-stimulated Raw 264.7 cells; type: cell-based, mouse; details: Raw 264.7, 1 ug/ml LPS 2 hr; mimetics 50 μM, IKKi VII 2 μM, 8K-NBD 400 μM
Method: Effect of the NBD mimetics on expression of NF-kB regulated genes in the Raw mouse macrophage cell line. Treatment of the Raw cells with the indicated drugs prior to addition of LPS reduced NF-kB-mediated gene expression as measured by RT-PCR.
To determine whether the inhibitory effect of the mimetics is TNF-α-dependent, LPS-mediated NF-κB activation via TLR4 was examined to determine a broader inhibitory effect of the novel NBD mimetics. NF-κB was stimulated in Raw 264.7 by 1 ug/ml of LPS for 2 hr and genes transcriptionally regulated by NF-κB were determined by qRT-PCR analysis. Both an IKK active site inhibitor IKKi VII (2 μM) and the 8K-NBD peptide (400 μM) were included as positive controls and the expression of COX2, IL-6, IL-1β, TNF-α, IκBα and iNOS were assessed.
Raw 264.7 cells were treated with a 50 μM solution of the SR compound for 30 minutes, and then the mRNA was harvested 2 hours after addition of 1 μg/mL LPS.
as §1

Ercc1−/Δ mice = test: Chronic treatment of Ercc1−/Δ mouse model of accelerated aging with SR12343; type: in vivo
Source text: FIG. 41 summarizes the regimen and endpoints for the study of the effects of NBD mimetics on aging using the Ercc1^−/Δ mouse model of accelerated aging
Thus these novel NBD mimetics could be used not only for treatment of inflammatory and degenerative diseases, but also aging.

Compound | degradation in the presence of serum [1] | dose-dependent inhibition of TNF-α-induced NF-κB activation, in words (NF-κB; 0, 6.25, 25, 50 and 100 μM) | inhibition of TNF-α-induced NF-κB activation (luciferase reporter), in words (NF-κB) | inhibition of TNF-α-induced NF-κB activation (luciferase reporter), in words (NF-κB; listed as Zinc-13) | senescence (SA-ß-gal staining) of ERCC1-deficient MEFs [2] | epidermal thickness / skin architecture [3] | NF-κB target gene expression in lung (iNOS, IκBα, COX2, IL-6) (NF-κB target genes [4]; 30 min before LPS 10 mg/kg, 2-4 hr) | NF-κB target gene expression in liver (NF-κB target genes [4]; LPS 10 mg/kg) | TNF-α expression in lung (NF-κB target genes [4]; LPS 10 mg/kg) | transcription of NF-κB target genes (COX2, IL-6, IL-1β, TNF-α, IκBα, iNOS) (NF-κB target genes [5]) | glycosaminoglycan (GAG) in intervertebral disc nucleus pulposus (Ercc1−/Δ mice) | healthspan (Ercc1−/Δ mice) | clearance of blood glucose (oral glucose tolerance test) (Ercc1−/Δ mice; 15 wk-old mice) | senescence (Ercc1−/Δ mice; 15 wk-old mice) | aging symptoms associated with frailty (Ercc1−/Δ mice; different ages) | overall score of the aging symptoms (Ercc1−/Δ mice; different ages) | body fat percentage (NMR) (Ercc1−/Δ mice; male mice) | forelimb grip strength (Ercc1−/Δ mice; male mice) | inhibition of NF-κB/IKK in liver and lung (NF-κB target genes [4]; LPS 10 mg/kg)
Nc1ncccc1C(=O)OCC(=O)Nc1ccc(Cl)cc1F [NBDA-1, 2-((4-chloro-2-fluorophenyl)amino)-2-oxoethyl 2-aminonicotinate] | rapid degradation in the presence of serum | only high concentrations (50 and 100 μM) of the compound were able to inhibit TNF-α-induced NF-κB activation significantly | slightly downregulated NF-κB activation | able to reduce activation of NF-κB by TNF-alpha at low micromolar ranges | reduced senescence | improved epidermal thickness to a greater extent than the peptide on which it was modeled | – | – | – | – | – | – | – | – | – | – | – | – | –
O=C(CNc1ccc(Cl)cn1)NCCc1cccc(Br)c1 [SR12343, N-(3-bromophenethyl)-2-((5-chloropyridin-2-yl)amino)acetamide] | – | – | – | – | – | – | downregulate NF-κB transcriptional activity significantly in lung | inhibiting only COX2 expression significantly | unchanged | significant inhibition on COX2, IL-6 and iNOS expression | improves pathology in the intervertebral disc as determined by measuring proteoglycans (GAG) | extension of healthspan | improves clearance of glucose in an oral glucose tolerance test | reduces senescence | reduces the onset of symptoms associated with frailty | reduces the onset of symptoms with chronic treatment | reduces loss of fat in male mice | improves grip strength in male mice | –
O=C(CNCCc1cc(F)cc(F)c1)Nc1ccc(Cl)cn1 [SR12460, N-(5-chloropyridin-2-yl)-2-((3,5-difluorophenethyl)amino)acetamide] | – | – | – | – | – | – | – | – | – | significantly downregulate the transcription of all NF-κB target genes tested | – | – | – | – | – | – | – | – | less potent compared to SR12343
